Tested on: IGF-IRβ, pS6 in wild-type cortical neurons
Assay: Proteasomal inhibition experiment, Western blot in wild-type cortical neurons
Type: cell-based, rat
Conditions: 100 nM bortezomib with 4 μM 17-AGG
Description: Hippocampi and cortexes from 18-day-old rat embryos (Charles River CD1) were isolated under the microscope and collected in Hank's Balanced Salt Solution containing 10 mM MgCl2, 1 mM kynurenic acid, 10 mM HEPES and penicillin/streptomycin. After 5 min dissociation at 37° C. in 30 U/ml of papain, neurons were mechanically triturated and plated in Neurobasal (NB) medium containing B27 supplement, 2 mM L-glutamine, penicillin/streptomycin and primocin (NB/B27). Biochemical analysis was performed on cortical cultures plated at 1×10^6 cells/well onto six-well plates. Immunofluorescent analysis was performed on hippocampal cultures plated at 20×10^3 cells/well onto 96-well plates. All plates were coated with 20 μg/ml poly-D-lysine (PDL).
Stocks of drugs were freshly diluted in NB media before performing each experiment. The same amount of vehicle was used as vehicle-only control. For dose response curves serial dilutions were freshly made in NB media by a manual multichannel pipette using compound dilution plates.
Protein extracts were lysed in 1×SDS (22 mM Tris-HCl pH 6.8, 4% Glycerol, 0.8% SDS, 1.6% β-mercaptoethanol, bromphenol blue) sample buffer, heated to 95° C. for 5 min and stored frozen. Before being subjected to discontinuous gel electrophoresis, equal amounts of all protein lysates were verified by Coomassie gel staining. For immunoblotting, equal amounts of protein lysates were subjected to SDS-PAGE, transferred to Immobilon-P Millipore and incubated in LI-COR blocking solution at RT for 2 hrs. Primary and secondary antibodies were diluted in LI-COR blocking solution to the appropriate concentrations. LI-COR IRDye secondary antibodies were used. All images were acquired using the LI-COR Odyssey Classic imager and associated Image Studio Lite analysis software (version 5.2.5). Quantification of protein expression was performed by densitometry scans of immunoblots using LI-COR Odyssey imaging system.

With `CC(C)C[C@H](NC(=O)[C@H](Cc1ccccc1)NC(=O)c1cnccn1)B(O)O` [BTZ, bortezomib] the “reduction in S6 phosphorylation caused by 17-AGG” value was “prevented” and the “reduction of IGF-IRβ levels caused by 17-AGG” value was “prevented”.

— patent publication US20230218577A1, “USE OF HEAT SHOCK PROTEIN INHIBITORS FOR THE TREATMENT OF NEURODEVELOPMENTAL DISORDERS” (The Children's Medical Center Corporation, priority 2020, published 2023)
